# Test results published in patent US11261201B2 (priority 2018, dated 2022).
# Structures can show the parent of a compound that is named as a salt. Where two headings read alike, the source gives them in different places.
# Columns and labels:
# H37RvMA = experiment: Tuberculosis Alamar Blue/Resazurin assay (MIC); format: cell-based; details: Mycobacterium tuberculosis, H37RV, read-out: WT H37Rv MTB Activity
# E. coli = experiment: Gram negative MIC protocol (OD600, LB, 24 h); details: Escherichia coli
# Protocol: (§1) Overnight bacterial cultures were grown in LB with no added antibiotics at 37° C. with shaking. A 1:1000 dilution of these cultures into LB was exposed to concentration gradients of compounds in 96-well plates (100 μL per well assay volume). Resulting plates were incubated at 37° C. for 24 h without shaking, and OD600 was measured at the end of the incubation. MICs were determined as the lowest concentrations at which OD600 remained at baseline.
# A. baumannii = experiment: Gram negative MIC protocol (OD600, LB, 24 h); details: Acinetobacter baumannii
# Protocol: as §1
# [1] = read-out: MIC E. coli delta-TolC LB Media, E. coli delta-TolC strain, LB media, 24 h, OD600
# [2] = read-out: MIC WT E. coli LB Media, wild-type E. coli, LB media, 24 h, OD600
# [3] = read-out: MIC A. baumannii LB Media, A. baumannii, LB media, 24 h, OD600
# [4] = read-out: MIC A. baumannii LB Media
SMILES,MIC (H37RvMA; WT H37Rv MTB) [µM],MIC (E. coli; [1]) [µM],MIC (E. coli; [2]) [µM],MIC (A. baumannii; [3]) [µM],MIC (H37RvMA) [µM],MIC (A. baumannii; [4]) [µM]
CC(CC1CCCCC1)NCc1ccccc1OCc1cn(C)nn1 (stereo not drawn) [B300],> 150,12,> 150,> 150,–,–
COCCOCCOc1ccccc1CNC(C)CC1CCCCC1 (stereo not drawn) [B301],> 150,12,> 150,> 150,–,–
CC(CC1CCCCC1)NCc1ccccc1OCc1cc(Br)no1 (stereo not drawn) [B302],55,< 1,150,150,–,–
COc1ccc(CNC(=O)COc2ccccc2CNC(C)CC2CCCCC2)cc1 (stereo not drawn) [B303],91,7,> 150,> 150,–,–
CC(CC1CCCCC1)NCc1ccccc1OCCCOCC(F)(F)F (stereo not drawn) [B304],91,3,> 150,> 150,–,–
CC(CC1CCCCC1)NCc1ccccc1OCCOCC(F)(F)F (stereo not drawn) [B305],150,3,> 150,91,–,–
Cc1noc(C)c1COc1ccccc1CNC(C)CC1CCCCC1 (stereo not drawn) [B306],> 150,12,> 150,> 150,–,–
CC(CC1CCCCC1)NCc1ccccc1OCCOC(C)(C)C (stereo not drawn) [B307],150,20,> 150,> 150,–,–
COCC(C)NC(=O)NC(=O)COc1ccccc1CNC(C)CC1CCCCC1 (stereo not drawn) [B308],> 150,4,> 150,150,–,–
CC(CC1CCCCC1)NCc1ccccc1OCC(=O)N1CCOCC1 (stereo not drawn) [B309],> 150,33,> 150,> 150,–,–
CC(CC1CCCCC1)NCc1ccccc1OCc1ncccn1 (stereo not drawn) [B310],> 150,55,> 150,> 150,–,–
CCOCOc1ccccc1CNC(C)CC1CCCCC1 (stereo not drawn) [B311],> 150,7,> 150,> 150,–,–
COCCCOc1ccccc1CNC(C)CC1CCCCC1 (stereo not drawn) [B312],> 150,7,> 150,> 150,–,–
CCOCCOc1ccccc1CNC(C)CC1CCCCC1 (stereo not drawn) [B313],> 150,7,> 150,> 150,–,–
CCSCCOc1ccccc1CNC(C)CC1CCCCC1 (stereo not drawn) [B314],150,4,150,91,–,–
CC(CC1CCCCC1)NCc1ccccc1OCCN(C)C (stereo not drawn) [B315],> 150,150,91,150,–,–
CC(CC1CCCCC1)NCc1ccccc1OCC(=O)N1CCOC(C)C1 (stereo not drawn) [B316],> 150,7,> 150,> 150,–,–
CC(CC1CCCCC1)NCc1ccccc1OCC(=O)NC(=O)NC1CCCC1 (stereo not drawn) [B317],55,3,91,91,–,–
CC(CC1CCCCC1)NCc1ccccc1OCC(=O)N(C)Cc1ccco1 (stereo not drawn) [B318],150,7,> 150,> 150,–,–
CC(CC1CCCCC1)NCc1ccccc1O (stereo not drawn) [B319],–,12,33,–,150,> 150
CC(CC1CCCCC1)NCc1ccccc1OCC(=O)N(C)C (stereo not drawn) [B320],> 150,20,> 150,> 150,–,–

SMILES,MIC (H37RvMA; WT H37Rv MTB) [µM],MIC (E. coli; [1]) [µM],MIC (E. coli; [2]) [µM],MIC (A. baumannii; [3]) [µM],MIC (H37RvMA) [µM],MIC (A. baumannii; [4]) [µM]
CC(CC1CCCCC1)NCc1ccccc1OC(F)(F)F (stereo not drawn) [B321],> 150,55,> 150,> 150,–,–
CC(CC1CCCCC1)NCc1ccccc1OCc1nnn(C)n1 (stereo not drawn) [B322],> 150,4,150,150,–,–
CC(CC1CCCCC1)NCc1ccccc1OCc1nc(C(C)C)no1 (stereo not drawn) [B323],150,4,> 150,> 150,–,–
CCc1noc(COc2ccccc2CNC(C)CC2CCCCC2)n1 (stereo not drawn) [B324],> 150,7,> 150,> 150,–,–
CC(CC1CCCCC1)NCc1ccccc1OCC(=O)NC(=O)NC(C)(C)C (stereo not drawn) [B325],91,4,> 150,150,–,–
CC(CC1CCCCC1)NCc1ccccc1OC1CC2CCC1(C)C2(C)C (stereo not drawn) [B326],55,12,> 150,> 150,–,–
COC(=O)C(C)Oc1ccccc1CNC(C)CC1CCCCC1 (stereo not drawn) [B327],> 150,7,> 150,> 150,–,–
"c1ccc(OCC2CCCCO2)c(CNCCC2CCCCC2)c1 (stereo not drawn) [B328, 2-cyclohexyl-N-(2-((tetrahydro-2H-pyran-2-yl)methoxy)benzyl)ethanamine hydrochloride]",150,55,> 150,> 150,–,–
"c1ccc(OCC2CCCO2)c(CNCCC2CCCCC2)c1 (stereo not drawn) [B329, 2-cyclohexyl-N-(2-((tetrahydrofuran-2-yl)methoxy)benzyl)ethanamine]",> 150,33,> 150,> 150,–,–
"c1ccc(OCC2CCOC2)c(CNCCC2CCCCC2)c1 (stereo not drawn) [B330, 2-cyclohexyl-N-(2-((tetrahydrofuran-3-yl)methoxy)benzyl)ethanamine]",> 150,33,> 150,> 150,–,–
"c1ccc(OCC2CCOCC2)c(CNCCC2CCCCC2)c1 [B331, 2-cyclohexyl-N-(2-((tetrahydro-2H-pyran-4-yl)methoxy)benzyl)ethanamine]",> 150,33,> 150,> 150,–,–
CC(CC1CCCCC1)NCc1ccccc1OCC(=O)N1CC(C)OC(C)C1 (stereo not drawn) [B333],> 150,7,> 150,> 150,–,–
Cc1nc(COc2ccccc2CNC(C)CC2CCCCC2)no1 (stereo not drawn) [B334],> 150,7,> 150,> 150,–,–
CC(CC1CCCCC1)NCc1ccccc1OCC(=O)NC(N)=O (stereo not drawn) [B335],> 150,4,55,150,–,–
CC(CC1CCCCC1)NCc1ccccc1OCC(=O)NCC1CCCO1 (stereo not drawn) [B336],> 150,33,> 150,> 150,–,–
CC(CC1CCCCC1)NCc1ccccc1OCCO (stereo not drawn) [B337],> 150,4,55,150,–,–
CC(CC1CCCCC1)NCc1ccccc1OCC(N)=O (stereo not drawn) [B338],> 150,12,91,> 150,–,–
OB1OCc2cccc(CNCCC3CCCCC3)c21 [B339],> 150,200,> 300,> 300,–,–
"OB(O)c1ccccc1CNCCC1CCCCC1 [B340, 2-((2-cyclohexylethylamino)methyl)phenylboronic acid]",> 150,55,> 150,> 150,–,–
"C[Si](C)(C)c1ccccc1CNCCC1CCCCC1 [B341, 2-cyclohexyl-N-(2-(trimethylsilyl)-benzyl)ethanamine hydrochloride]",–,7,> 150,–,150,> 150
CC(CC1CCCCC1)NCc1ccccc1OCC(O)C(C)C (stereo not drawn) [B342],91,4,150,150,–,–
